Patent US12478629B2, “Use of glucocorticoids for the treatment of epithelial microbial infections of a fluid containing organ with a natural exterior orifice in mammals” (VIRBAC, priority 2018, dated 2025)

System: mild clinical mastitis
Experiment: Multicenter clinical field study, intramammary treatment of mild clinical mastitis
Assay type: in vivo, lactating cows and heifers
Procedure: The purpose of this multicenter clinical field study is to evaluate the efficacy and the safety of HCA at a dosage of 20 mg in 10 ml of Vaseline oil based formulation every 12±2 h hours (minimum of one and maximum of four treatments) in the intramammary treatment of mild clinical mastitis in lactating cows; more specifically to assess the efficacy (clinical cure rate) of HCA alone in the treatment of udder inflammation (mild clinical mastitis), under field conditions and to assess the safety and the risk of aggravation or relapses during and after the treatment with HCA alone.
Animals (50 lactating cows and heifers presenting clinical symptoms of mastitis) have been intramammarily treated with one syringe (10 mL) containing 20 mg of HCA at each time point for a minimum of 1 and a maximum of 4 treatments in a 12±2 h interval (each morning or evening milking time, respectively). Depending on the result of the clinical examination and the clinical status classification, the animal has been treated until the animal was classified as clinically cured, failure or the maximum of 4 treatments is reached.
Before the tested treatment, a sample of milk of each animal has been collected to be tested for bacteriology of classical pathogenic bacteria; among the 50 animals, 34 produced a milk containing pathogenic bacteria, no pathogenic bacteria has been detected in the milk of the 16 remaining animals, it can nevertheless not be excluded that those 16 animals were infected by a non-tested pathogenic bacteria.

CCC(=O)O[C@]1(C(=O)COC(C)=O)CC[C@H]2[C@@H]3CCC4=CC(=O)CC[C@]4(C)[C@H]3[C@@H](O)C[C@@]21C [HCA, hydrocortisone 21-acetate 17α-propionate]
animals cured (clinical cure rate) (16 animals bacteriologically negative at DO): 56.3% | animals cured (clinical cure rate) (34 animals bacteriologically positive at DO): 20.6% | animals cured (clinical cure rate) (all 50 animals, 20 mg HCA in 10 mL intramammary every 12±2 h, after 3 or 4 administrations): 32% | adverse effect of the treatment / tolerance (intramammary, 20 mg in 10 mL, 1 to 4 treatments): No adverse effect
